Data: patent publication US11999715B2, “ASK1 inhibiting agents” (BIOGEN MA INC., priority 2018, dated 2024)

Tests used:
[1] = target: T1, ASK1 T838 auto phosphorylation (Homo sapiens, UniProt Q99683); experiment: ASK1 (AUTO PHOS T838) assay, MSD format, in HEK-293T cells transfected with ASK1-V5; type: cell-based; settings: ASK1 T838 auto phosphorylation in HEK-293T cells, 1 hr compound incubation; class symbols
T1 sequence (Q99683 1-1374): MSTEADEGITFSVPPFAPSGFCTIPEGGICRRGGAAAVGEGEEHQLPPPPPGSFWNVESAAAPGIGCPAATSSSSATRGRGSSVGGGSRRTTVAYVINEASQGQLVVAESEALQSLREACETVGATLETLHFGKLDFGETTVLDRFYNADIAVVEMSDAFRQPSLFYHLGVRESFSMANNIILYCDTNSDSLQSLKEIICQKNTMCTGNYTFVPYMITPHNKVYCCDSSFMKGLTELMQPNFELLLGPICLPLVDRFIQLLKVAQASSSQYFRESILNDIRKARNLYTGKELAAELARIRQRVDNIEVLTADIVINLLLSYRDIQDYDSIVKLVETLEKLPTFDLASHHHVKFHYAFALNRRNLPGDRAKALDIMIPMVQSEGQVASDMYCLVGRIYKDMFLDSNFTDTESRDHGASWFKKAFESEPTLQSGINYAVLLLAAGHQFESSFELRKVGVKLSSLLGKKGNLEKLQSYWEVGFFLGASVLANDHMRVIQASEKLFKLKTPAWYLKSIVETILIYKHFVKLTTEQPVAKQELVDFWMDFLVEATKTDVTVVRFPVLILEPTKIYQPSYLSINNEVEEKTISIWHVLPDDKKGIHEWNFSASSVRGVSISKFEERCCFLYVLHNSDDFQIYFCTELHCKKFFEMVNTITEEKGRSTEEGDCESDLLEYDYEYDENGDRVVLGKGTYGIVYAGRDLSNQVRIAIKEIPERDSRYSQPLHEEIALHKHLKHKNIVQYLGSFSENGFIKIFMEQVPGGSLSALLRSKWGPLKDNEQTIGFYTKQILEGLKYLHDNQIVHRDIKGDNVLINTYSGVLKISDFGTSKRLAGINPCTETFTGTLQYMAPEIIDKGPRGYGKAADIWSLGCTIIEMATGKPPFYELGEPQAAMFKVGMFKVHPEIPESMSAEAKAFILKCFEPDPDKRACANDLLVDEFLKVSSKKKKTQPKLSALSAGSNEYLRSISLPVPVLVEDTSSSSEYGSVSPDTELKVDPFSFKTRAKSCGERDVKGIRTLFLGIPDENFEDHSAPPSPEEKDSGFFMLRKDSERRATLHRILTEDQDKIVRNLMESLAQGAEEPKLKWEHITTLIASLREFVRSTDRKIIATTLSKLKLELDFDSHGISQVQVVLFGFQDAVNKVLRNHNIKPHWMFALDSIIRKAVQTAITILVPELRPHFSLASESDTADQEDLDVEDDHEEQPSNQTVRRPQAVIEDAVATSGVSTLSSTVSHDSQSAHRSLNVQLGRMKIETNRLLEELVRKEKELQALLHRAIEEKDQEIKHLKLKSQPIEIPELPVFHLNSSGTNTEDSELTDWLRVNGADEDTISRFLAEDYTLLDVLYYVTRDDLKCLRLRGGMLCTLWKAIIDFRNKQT
Summary of the method: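 HEK-293T cells transiently transfected with full-length ASK1-V5 plasmid were replated, then treated 1 h at 37 °C with a 10-point, 3-fold series from 20 μM. Lysates were probed by MSD with anti-pASK1 T838 and a sulfo-tag secondary, read by chemiluminescence. IC50 came from a 4-parameter fit of normalized % activity.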

ASK1/MAP3K5 = target: T2, ASK1/MAP3K5 (Homo sapiens, UniProt Q99683); experiment: ASK1/MAP3K5 kinase assay by Reaction Biology Corp. (headed ASK1 TR-FRET Assay); type: biochemical; settings: 20 μM myelin basic protein, 10 μM ATP, class symbols
T2 sequence (Q99683 1-1374): T1 sequence (Q99683 1-1374)
Summary of the method: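 Radiometric filter-binding assay with ASK1/MAP3K5, 20 μM MBP substrate and 10 μM ATP plus ^33P-ATP in HEPES pH 7.5 buffer with 1% DMSO. Compounds were preincubated with kinase 20 min, and the reaction then ran 2 hours at room temperature.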

| IC50 [1] [µM] | IC50 (ASK1/MAP3K5) [µM] | SMILES |
| --- | --- | --- |
| ≤ 1 | ≤ 0.1 | COc1nn(-c2cccnn2)cc1C(=O)Nc1cccc(-c2nncn2[C@@H](C)C(F)(F)F)n1 [Example 85, (S)-3-Methoxy-1-(pyridazin-3-yl)-N-(6-(4-(1,1,1-trifluoropropan-2-yl)-4H-1,2,4-triazol-3-yl)pyridin-2-yl)-1H-pyrazole-4-carboxamide] |
| 1 to 10 | 0.1 to 1 | COc1nn(-c2cccnn2)cc1C(=O)Nc1cccc(-c2nncn2[C@H](C)C(F)(F)F)n1 [Example 86, (R)-3-Methoxy-1-(pyridazin-3-yl)-N-(6-(4-(1,1,1-trifluoropropan-2-yl)-4H-1,2,4-triazol-3-yl)pyridin-2-yl)-1H-pyrazole-4-carboxamide] |
| ≤ 1 | ≤ 0.1 | COc1nn(-c2cnccn2)cc1C(=O)Nc1cccc(-c2nncn2[C@@H](C)C(F)(F)F)n1 [Example 87, (S)-3-Methoxy-1-(pyrazin-2-yl)-N-(6-(4-(1,1,1-trifluoropropan-2-yl)-4H-1,2,4-triazol-3-yl)pyridin-2-yl)-1H-pyrazole-4-carboxamide] |
| 1 to 10 | 0.1 to 1 | COc1nn(-c2cnccn2)cc1C(=O)Nc1cccc(-c2nncn2[C@H](C)C(F)(F)F)n1 [Example 88, (R)-3-Methoxy-1-(pyrazin-2-yl)-N-(6-(4-(1,1,1-trifluoropropan-2-yl)-4H-1,2,4-triazol-3-yl)pyridin-2-yl)-1H-pyrazole-4-carboxamide] |
| ≤ 1 | ≤ 0.1 | C[C@H](n1cnnc1-c1cccc(NC(=O)c2cn(-c3cnccn3)nc2C(F)F)n1)C(F)(F)F [Example 89, (S)-3-(Difluoromethyl)-1-(pyrazin-2-yl)-N-(6-(4-(1,1,1-trifluoropropan-2-yl)-4H-1,2,4-triazol-3-yl)pyridin-2-yl)-1H-pyrazole-4-carboxamide] |
| ≤ 1 | ≤ 0.1 | COCCn1cc(C(=O)Nc2cccc(-c3cncn3C(C)C)n2)c(OC)n1 [Example 92, N-(6-(1-Isopropyl-1H-imidazol-5-yl)pyridin-2-yl)-3-methoxy-1-(2-methoxyethyl)-1H-pyrazole-4-carboxamide] |
| ≤ 1 | ≤ 0.1 | Cc1cncc(-n2cc(C(=O)Nc3cccc(-c4cncn4C(C)C)n3)c(C(F)F)n2)c1 [Example 93, 3-(Difluoromethyl)-N-(6-(1-isopropyl-1H-imidazol-5-yl)pyridin-2-yl)-1-(5-methylpyridin-3-yl)-1H-pyrazole-4-carboxamide] |
| ≤ 1 | ≤ 0.1 | CC(C)n1cncc1-c1cccc(NC(=O)c2cn(-c3cccnc3)nc2C(F)F)n1 [Example 94, 3-(Difluoromethyl)-N-(6-(1-isopropyl-1H-imidazol-5-yl)pyridin-2-yl)-1-(pyridin-3-yl)-1H-pyrazole-4-carboxamide] |
| ≤ 1 | ≤ 0.1 | CC(C)n1cncc1-c1cccc(NC(=O)c2cn(-c3cncc(C#N)c3)nc2C(F)F)n1 [Example 95, 1-(5-Cyanopyridin-3-yl)-3-(difluoromethyl)-N-(6-(1-isopropyl-1H-imidazol-5-yl)pyridin-2-yl)-1H-pyrazole-4-carboxamide] |

The next lines start with the molecule.

| SMILES | IC50 [1] [µM] | IC50 (ASK1/MAP3K5) [µM] |
| --- | --- | --- |
| COc1nn(-c2cncc(O)c2)cc1C(=O)Nc1cccc(-c2nncn2C(C)C)n1 [Example 70, 1-(5-Hydroxypyridin-3-yl)-N-(6-(4-isopropyl-4H-1,2,4-triazol-3-yl)pyridin-2-yl)-3-methoxy-1H-pyrazole-4-carboxamide] | 1 to 10 | ≤ 0.1 |
| COc1cncc(-n2cc(C(=O)Nc3cccc(-c4nncn4C(C)C)n3)c(OC)n2)c1 [Example 71, N-(6-(4-Isopropyl-4H-1,2,4-triazol-3-yl)pyridin-2-yl)-3-methoxy-1-(5-methoxypyridin-3-yl)-1H-pyrazole-4-carboxamide] | ≤ 1 | ≤ 0.1 |
| COc1nn(-c2cncc(OC(C)C)c2)cc1C(=O)Nc1cccc(-c2nncn2C(C)C)n1 [Example 72, 1-(5-Isopropoxypyridin-3-yl)-N-(6-(4-isopropyl-4H-1,2,4-triazol-3-yl)pyridin-2-yl)-3-methoxy-1H-pyrazole-4-carboxamide] | ≤ 1 | ≤ 0.1 |
| CC(C)n1cnnc1-c1cccc(NC(=O)c2cn(-c3cncc(Br)c3)nc2C(F)F)n1 [Example 74, 1-(5-Bromopyridin-3-yl)-3-(difluoromethyl)-N-(6-(4-isopropyl-4H-1,2,4-triazol-3-yl)pyridin-2-yl)-1H-pyrazole-4-carboxamide] | ≤ 1 | ≤ 0.1 |
| Cc1cncc(-n2cc(C(=O)Nc3cccc(-c4nncn4C(C)C)n3)c(C(F)F)n2)c1 [Example 75, 3-(Difluoromethyl)-N-(6-(4-isopropyl-4H-1,2,4-triazol-3-yl)pyridin-2-yl)-1-(5-methylpyridin-3-yl)-1H-pyrazole-4-carboxamide] | ≤ 1 | ≤ 0.1 |
| CC(C)n1cnnc1-c1cccc(NC(=O)c2cn(-c3cncc(C#N)c3)nc2C(F)F)n1 [Example 76, 1-(5-Cyanopyridin-3-yl)-3-(difluoromethyl)-N-(6-(4-isopropyl-4H-1,2,4-triazol-3-yl)pyridin-2-yl)-1H-pyrazole-4-carboxamide] | ≤ 1 | ≤ 0.1 |
| CC(C)n1cnnc1-c1cccc(NC(=O)c2cn(-c3cncc(C4CC4)c3)nc2C(F)F)n1 [Example 77, 1-(5-Cyclopropylpyridin-3-yl)-3-(difluoromethyl)-N-(6-(4-isopropyl-4H-1,2,4-triazol-3-yl)pyridin-2-yl)-1H-pyrazole-4-carboxamide] | ≤ 1 | ≤ 0.1 |
| COc1cncc(-n2cc(C(=O)Nc3cccc(-c4nncn4C(C)C)n3)c(C(F)F)n2)c1 [Example 78, 3-(Difluoromethyl)-N-(6-(4-isopropyl-4H-1,2,4-triazol-3-yl)pyridin-2-yl)-1-(5-methoxypyridin-3-yl)-1H-pyrazole-4-carboxamide] | ≤ 1 | ≤ 0.1 |
| CC(C)n1cnnc1-c1cccc(NC(=O)c2cn(-c3cncc(N(C)C)c3)nc2C(F)F)n1 [Example 79, 3-(Difluoromethyl)-1-(5-(dimethylamino)pyridin-3-yl)-N-(6-(4-isopropyl-4H-1,2,4-triazol-3-yl)pyridin-2-yl)-1H-pyrazole-4-carboxamide] | ≤ 1 | ≤ 0.1 |
| CC(C)n1cnnc1-c1cccc(NC(=O)c2cn(-c3cncc(O)c3)nc2C(F)F)n1 [Example 80, 3-(Difluoromethyl)-1-(5-hydroxypyridin-3-yl)-N-(6-(4-isopropyl-4H-1,2,4-triazol-3-yl)pyridin-2-yl)-1H-pyrazole-4-carboxamide] | ≤ 1 | ≤ 0.1 |
| CC(C)Oc1cncc(-n2cc(C(=O)Nc3cccc(-c4nncn4C(C)C)n3)c(C(F)F)n2)c1 [Example 81, 3-(Difluoromethyl)-1-(5-isopropoxypyridin-3-yl)-N-(6-(4-isopropyl-4H-1,2,4-triazol-3-yl)pyridin-2-yl)-1H-pyrazole-4-carboxamide] | ≤ 1 | ≤ 0.1 |
| CC(C)n1cnnc1-c1cccc(NC(=O)c2cn(-c3cccnc3)nc2C(F)F)n1 [Example 82, 3-(Difluoromethyl)-N-(6-(4-isopropyl-4H-1,2,4-triazol-3-yl)pyridin-2-yl)-1-(pyridin-3-yl)-1H-pyrazole-4-carboxamide] | ≤ 1 | ≤ 0.1 |
| COc1nn(-c2cccnn2)cc1C(=O)Nc1cccc(-c2nncn2C(C)C)n1 [Example 84, N-(6-(4-Isopropyl-4H-1,2,4-triazol-3-yl)pyridin-2-yl)-3-methoxy-1-(pyridazin-3-yl)-1H-pyrazole-4-carboxamide] | ≤ 1 | ≤ 0.1 |
